Paper PMC10740499, “Benzodioxane–Benzamides as FtsZ Inhibitors: Effects of Linker’s Functionalization on Gram-Positive Antimicrobial Activity” (Antibiotics, 2023)
≈ marks a conversion by molar mass, not a printed value. Where “and” joins values, the source holds several entries; their conditions need not be identical. Equal values may be shown once. Read-outs that look alike come from different tables or passages of the source.

What was measured:
[1] = system: methicillin-sensitive S. aureus (MSSA, ATCC29213); test: MIC, broth dilution, MSSA ATCC 29213; assay type: cell-based, Staphylococcus aureus
Text: (§1) As described in our previous work, we evaluated all the compounds mentioned above on different S. aureus strains. We tested on both methicillin-sensitive S. aureus (MSSA, ATCC29213) and two clinical isolates of S. aureus showing multi-drug resistance (MDRSA). […] We analyzed the MICs and, if the antibacterial activity was promising, we also determined the percentage of cytotoxicity using the MTT assay on human MRC-5 cells and reported it as TD90. The results of antibacterial properties of all of the synthesized derivatives are shown in Table 1, and they are compared with their reference compounds FZ14, FZ88, and FZ100.
Gram-positive methicillin-sensitive Staphylococcus aureus (MSSA, ATCC 29213) was grown in Luria–Bertani broth (LB), as already described in our papers.
(§2) The detailed protocol is identical to what was previously reported. Briefly, the antimicrobial testing of compounds followed the Clinical and Laboratory Standards Institute and European Committee for Antimicrobial Susceptibility Testing guidelines. A bacterial suspension equivalent to 0.5 McFarland turbidity standard was diluted in cation-adjusted Mueller Hinton broth to prepare a fresh bacterial culture of 10^5 CFU/mL. Compounds dissolved in DMSO were combined with the bacteria and incubated for 20 h at 35 °C. MIC values were determined visually as the lowest compound dilution with no turbidity. MICs were determined against methicillin-sensitive and methicillin-resistant S. aureus strains (11.7 and 12.1). Every assay was performed in triplicate, and for each series of experiments, both positive (tetracycline) and negative (no compounds) controls were included.

[2] = system: MDRSA 12.1; test: MIC, broth dilution, MDRSA 12.1; assay type: cell-based, Staphylococcus aureus; details: MDRSA 12.1 clinical isolate
Text: as §1, §2

[3] = system: MDRSA 11.7; test: MIC, broth dilution, MDRSA 11.7; assay type: cell-based, Staphylococcus aureus; details: MDRSA 11.7 clinical isolate
Text: as §1, §2

[4] = system: human MRC-5 cells; test: MTT cytotoxicity assay; assay type: cell-based; details: MRC-5, MTT assay
Text: as §1
Normal human lung fibroblasts (MRC-5) were grown in Dulbecco’s Modified Eagle’s medium (DMEM) supplemented with 10% heat-inactivated fetal calf serum (FCS), 100 U/mL penicillin, and […] streptomycin.
Compounds showing promising antibacterial activity were serially diluted in DMEM and tested for cytotoxicity on MRC-5 cells using the MTT assay (Sigma, St Louis, MO, USA), following the same protocol we previously reported.

[5] = system: B. subtilis strain WM5126; test: Spot viability assay on solid medium; assay type: cell-based, Bacillus subtilis; details: for colony viability on solid medium, in words: more potent compounds, Figure 4A; for growth on solid medium at 6 µg/mL: 6 µg/mL in LB agar; for concentration able to kill on solid medium: spot dilutions on LB agar
Text: (§3) We further evaluated the most promising compounds on B. subtilis, a model Gram-positive species used previously in evaluating other benzamides, including by our research group. The B. subtilis strain WM5126 expresses a xylose-inducible GFP-tagged ZapA protein. […] We first tested the effects of the compounds on colony viability on solid medium (Figure 4). […] MIC values from microdilution experiments, shown in the right column in Figure 4, largely mirrored the spot viability data.
(§4) The B. subtilis strain used was WM5126 (JH642 amyE::Pxyl-gfp-zapA). For spot viability assays on plates, compounds were diluted from DMSO stocks into molten LB agar and mixed well before solidifying. To assess viability, cells were grown until the early log phase, and then 10-fold serial dilutions of the culture in LB were spotted onto LB agar plates containing the indicated final concentration of the compounds. The plates were incubated overnight at 30 °C and photographed. Microdilution assays to obtain MICs were performed essentially as described for E. coli.

[6] = system: B. subtilis strain WM5126; test: MIC from broth microdilution; assay type: cell-based, Bacillus subtilis
Text: as §3, §4

[7] = system: FtsZ rings in live B. subtilis WM 5126 cells expressing GFP-ZapA; test: GFP-ZapA fluorescence microscopy of FtsZ assembly; assay type: cell-based, Bacillus subtilis; details: 0.3 µg/mL (0.8 µM), 90 min
Experimental: To test if the differential effects of FZ116 and FZ117 enantiomers could be detected as FtsZ assembly changes in B. subtilis cells, we visualized GFP-ZapA patterns after growth in inhibitory concentrations of FZ116 and FZ117 (0.3 µg/mL or 0.8 µM). Cells grown with no added compound grew as typical single bacilli and short chains, with well- defined Z rings clearly visible (Figure 5, left panel, single yellow arrows). […] This conversion of FtsZ rings into a speckle pattern was observed previously, both with FZ100 [14] and with the original benzamide derivatives.
For fluorescence microscopy, overnight cultures of WM5126 were grown at 33 °C (after 1:200 dilution overnight and addition of 0.1% xylose to induce expression of GFP-ZapA) for ~2 h until reaching an OD600 of ~0.2 and then treated with no drug or with compounds FZ116 or FZ117 diluted in water to a final concentration of 0.3 µg/mL (0.8 µM) from stock solutions of 30 mg/mL in DMSO. After the addition of the compounds, the cultures were grown for 90 min while shaking at 33 °C prior to spotting on a thin layer of 1% agarose in phosphate-buffered saline. Cells were imaged with an Olympus BX100 fitted with a 100 × Plan Apochromat objective (N.A. 1.4) and a GFP filter set (Chroma). Images were acquired with CellSens Dimension version 2 software (Evident Corporation, Tokyo, Japan).

[8] = system: E. coli FtsZ; set-up: method as in PMID 37634788; details: in words; cited from earlier work
[9] = system: human MRC-5 cells; set-up: method as in PMID 33920895; details: in words; cited from earlier work
[10] = system: methicillin-sensitive Staphylococcus aureus (MSSA); details: cited from earlier work
[11] = system: methicillin-resistant S. aureus (MRSA); details: cited from earlier work
[12] = system: B. subtilis; set-up: method as in PMID 33920895; details: cited from earlier work
[13] = Staphylococcus aureus, 20 h, MSSA ATCC 29213, 20 h at 35 °C, read-out: MIC
[14] = Staphylococcus aureus, read-out: MIC vs S. aureus
[15] = Bacillus subtilis, value in brackets
[16] = MSSA ATCC 29213, 20 h at 35 °C, read-out: MIC
[17] = as repeated in Table S1 beside the docking ranges, read-out: MIC vs S. aureus

Row | Structure (SMILES) | MIC [1, 13] [µM] | MIC [1, 14] [µM] | MIC ([2]; Staphylococcus aureus) [µM] | MIC ([3]; Staphylococcus aureus) [µM] | TD90 [4] [µM] | MIC ([6]; Bacillus subtilis) [µg/mL] | MIC [6, 15] [µM] | further results
1 | CC(COc1ccc(F)c(C(N)=O)c1F)C1COc2cc3c(cc2O1)CCCC3 (stereo not drawn) [FZ118, Erythro 3-(2-(5,6,7,8-Tetrahydro-1,4-naphthodioxan-2-yl)prop-1-yloxy)-2,6-difluorobenzamide] | 9.9 (≈ 3.99 µg/mL) | 9.9 (≈ 3.99 µg/mL) | 9.9 (≈ 3.99 µg/mL) | 9.9 (≈ 3.99 µg/mL) | 471.0 | < 0.24 | < 0.6 | colony viability on solid medium, in words [5]: less effective
2 | CC(COc1ccc(F)c(C(N)=O)c1F)C1COc2ccccc2O1 (stereo not shown) [FZ98, 3-(2-(1,4-benzodioxan-2-yl)-1-propyloxy)-2,6-difluorobenzamide] |  |  |  |  |  | 15 | 42 | MIC [1, 16]: 91.6 µM (≈ 32 µg/mL); MIC [1, 17]: 91.6 µM (≈ 32 µg/mL); MIC [2]: 91.6 µM (≈ 32 µg/mL); MIC [3]: 91.6 µM (≈ 32 µg/mL); growth on solid medium at 6 µg/mL [5]: still permitted growth
3 | NC(=O)c1c(F)ccc(OCCC2COc3ccccc3O2)c1F (stereo not shown) [FZ88, reference compound] | 14.9 (≈ 5 µg/mL) |  | 14.9 (≈ 5 µg/mL) | 14.9 (≈ 5 µg/mL) | 226 |  |  | 
4 | NC(=O)c1c(F)ccc(OC[C@H](O)[C@H]2COc3cc4c(cc3O2)CCCC4)c1F (relative stereo) [FZ116] | 4.9 (≈ 1.99 µg/mL) | 4.9 (≈ 1.99 µg/mL) | 4.9 (≈ 1.99 µg/mL) | 4.9 (≈ 1.99 µg/mL) | 468.7 | < 0.24 | < 0.6 | colony viability on solid medium, in words [5]: killed B. subtilis at the lowest doses; FtsZ ring / GFP-ZapA pattern [7]: largely disrupted; in vitro inhibition of E. coli FtsZ [8]: very strong
5 | CC(COc1ccc(F)c(C(N)=O)c1F)C1COc2ccccc2O1 (stereo not shown) [FZ97, 3-(2-(1,4-benzodioxan-2-yl)-1-propyloxy)-2,6-difluorobenzamide] |  |  |  |  |  |  |  | MIC [1, 16]: 366.4 µM (≈ 128 µg/mL); MIC [1, 17]: 366.4 µM (≈ 128 µg/mL); MIC [2]: 366.4 µM (≈ 128 µg/mL); MIC [3]: 366.4 µM (≈ 128 µg/mL)
6 | C[C@H](Oc1ccc(F)c(C(N)=O)c1F)[C@H]1COc2ccccc2O1 (relative stereo) [FZ104, 3-[1-(1,4-benzodioxan-2yl)ethyl-1-oxy]-2,6-difluorobenzamide] | 23.9 (≈ 8.01 µg/mL) | 23.9 (≈ 8.01 µg/mL) | 23.9 (≈ 8.01 µg/mL) | 23.9 (≈ 8.01 µg/mL) |  | 3.75 | 11 | concentration able to kill on solid medium ([5]; overnight 30 °C): 6 µg/mL; concentration able to kill on solid medium ([5]; value in brackets): ~ 20 µM
7 | NC(=O)c1c(F)ccc(OCCC2COc3cc4ccccc4cc3O2)c1F (stereo not shown) [FZ95] |  |  |  |  |  |  |  | cytotoxicity towards human MRC-5 cells [9]: low to no cytotoxicity; MIC [10]: 0.25 μg/mL and 0.6 μM; MIC [11]: 0.25 μg/mL and 0.6 μM; MIC [12]: under 0.1 μg/mL
8 | NC(=O)c1c(F)ccc(OCC2COc3ccccc3O2)c1F (stereo not shown) [FZ14, reference compound] | 15.6 (≈ 5.01 µg/mL) |  | 15.6 (≈ 5.01 µg/mL) | 15.6 (≈ 5.01 µg/mL) | 49.8 |  |  | 
9 | NC(=O)c1c(F)ccc(OC[C@@H](O)[C@H]2COc3ccccc3O2)c1F (relative stereo) [FZ113] | 364 (≈ 128 µg/mL) | 364 (≈ 128 µg/mL) | 364 (≈ 128 µg/mL) | 364 (≈ 128 µg/mL) |  | 15 | 42 | growth on solid medium at 6 µg/mL [5]: still permitted growth
10 | CC(COc1ccc(F)c(C(N)=O)c1F)C1COc2cc3c(cc2O1)CCCC3 (stereo not drawn) [FZ119, Threo 3-(2-(5,6,7,8-Tetrahydro-1,4-naphthodioxan-2-yl)prop-1-yloxy)-2,6-difluorobenzamide] |  |  |  |  | 247.9 |  |  | MIC [1, 16]: 9.9 µM (≈ 3.99 µg/mL); MIC [1, 17]: 9.9 µM (≈ 3.99 µg/mL); MIC [2]: 9.9 µM (≈ 3.99 µg/mL); MIC [3]: 9.9 µM (≈ 3.99 µg/mL); colony viability on solid medium, in words [5]: killed B. subtilis at the lowest doses; MIC (microdilution) [6]: < 0.24 µg/mL; MIC ([6]; value in brackets): < 0.6 µM
11 | CC(Oc1ccc(F)c(C(N)=O)c1F)C1COc2ccccc2O1 (stereo not shown) [FZ105, 3-[1-(1,4-benzodioxan-2yl)ethyl-1-oxy]-2,6-difluorobenzamide] | 191 (≈ 64 µg/mL) | 191 (≈ 64 µg/mL) | 191 (≈ 64 µg/mL) | 191 (≈ 64 µg/mL) |  |  |  | 
12 | NC(=O)c1c(F)ccc(OC[C@H](O)[C@H]2COc3ccccc3O2)c1F (relative stereo) [FZ112] | 364 (≈ 128 µg/mL) | 364 (≈ 128 µg/mL) | 364 (≈ 128 µg/mL) | 364 (≈ 128 µg/mL) |  | 7.5 | 21 | growth on solid medium at 6 µg/mL [5]: still permitted growth
13 | NC(=O)c1c(F)ccc(OCCC2COc3cc4c(cc3O2)CCCC4)c1F (stereo not shown) [FZ100] | 0.25 (≈ 0.0973 µg/mL) |  | 0.25 (≈ 0.0973 µg/mL) | 0.25 (≈ 0.0973 µg/mL) | 2054 |  |  | cytotoxicity towards human MRC-5 cells [9]: low to no cytotoxicity; MIC [10]: 0.1 μg/mL and 0.25 μM; MIC [11]: 0.1 μg/mL and 0.25 μM; MIC [12]: under 0.1 μg/mL
14 | NC(=O)c1c(F)ccc(OC[C@@H](O)[C@H]2COc3cc4c(cc3O2)CCCC4)c1F (relative stereo) [FZ117] | 19.7 (≈ 7.99 µg/mL) | 19.7 (≈ 7.99 µg/mL) | 19.7 (≈ 7.99 µg/mL) | 19.7 (≈ 7.99 µg/mL) | 468.7 | 0.94 | 2.7 | colony viability on solid medium, in words [5]: less effective; FtsZ ring / GFP-ZapA pattern [7]: mixture of FtsZ speckles and Z rings
15 | NC(=O)c1c(F)ccc(OCc2nc3cc(Cl)cnc3s2)c1F [PC190723] |  |  |  |  |  |  |  | MIC [10]: 1 µg/mL (≈ 2.81 µM); MIC [11]: 1 µg/mL (≈ 2.81 µM)
